# Measured values from patent US12493045B2, “Multi-target crosslinkers and uses thereof” (The Regents of the University of California, priority 2018, dated 2025).
# Numbering of substitutions follows the chain as printed.
# Tests used:
# [1] = molecular target: T1, Glutathione S-Transferase (GST) (Escherichia coli, UniProt P0A9D2); test: Cross-linking of GST (SDS-PAGE, Western blot, CXMS)
# T1 sequence (P0A9D2 1-201): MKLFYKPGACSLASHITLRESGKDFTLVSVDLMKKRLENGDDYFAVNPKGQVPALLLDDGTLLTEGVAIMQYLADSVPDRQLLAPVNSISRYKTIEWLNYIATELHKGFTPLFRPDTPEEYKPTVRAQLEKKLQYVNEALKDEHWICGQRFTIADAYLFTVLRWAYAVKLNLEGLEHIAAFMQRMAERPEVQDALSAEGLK
# Experimental: NHSF Cross-links Glutathione S-Transferase. To further validate the cross-linking specificity of NHSF, the homodimeric Glutathione S-Transferase (GST) was cross-linked by NHSF or BS2G.
# Peptide and protein cross-linking. […] BS2G cross-linking reaction was terminated at RT by adding 20 mM ammonium bicarbonate and incubating for 20 min. NHSF cross-linking reaction was terminated at RT by adding 10 mM Dithiothreitol (DTT) and incubating for 20 min. GST: In a 20 μL reaction, 10 μM GST (23 kDa, in PBS buffer, pH 7.5) was cross-linked at RT for 1 h with 0.5 mM BS2G or 0.5 mM NHSF, which corresponded to a 1:50 protein:cross-linker molar ratio. The cross-linking reactions were similarly terminated as described in the BSA section above.
# [2] = molecular target: Bovine Serum Albumin (BSA) (Bos taurus, UniProt P02769); test: CXMS analysis of cross-linked BSA
# Experimental: NHSF Cross-links Bovine Serum Albumin.
# BSA: In a 20 μL reaction, 10 μM BSA (69 kDa, in PBS buffer, pH 7.5) was cross-linked at RT for 1 h with 1 mM BS2G or 1 mM NHSF, which corresponded to a 1:100 protein:cross-linker molar ratio. BS2G cross-linking reaction was terminated at RT by adding 20 mM ammonium bicarbonate and incubating for 20 min. NHSF cross-linking reaction was terminated at RT by adding 10 mM Dithiothreitol (DTT) and incubating for 20 min.
# Protein digestion. All protein samples were precipitated by six volumes of acetone at −20° C. for 30 min. Precipitated proteins were dried in air and resuspended in 8 M urea, 100 mM Tris, pH 8.5. After reduction with 2 mM DTT for 20 min and alkylation with 10 mM iodoacetamide for 15 min in the dark, samples were diluted to 2 M urea with 100 mM Tris, pH 8.5, and digested with trypsin (at 50:1 protein:enzyme ratio) at 37° C. for 16 h. Digestion was stopped by adding formic acid to 5% final concentration, and digested peptides were desalted with stagetip.
# Tandem mass spectrometric analysis. Mass spectrometry experiments were performed using an Orbitrap Fusion Lumos™ instrument (ThermoFisher, San Jose, CA) coupled with an UltiMate™ 3000 nano LC. Mobile phase A and B were water and acetonitrile, respectively, with 0.1% formic acid. […]
# peptide 7KR (Ac-AAAKAAR) = test: Reaction of crosslinker with model peptide 7KR (mass spectra); assay type: biochemical; conditions: 10 μM peptide, 10 μM crosslinker, PBS pH 7.5, RT 1 h
# Source text: Reaction of NHSF with Model Peptide. We first tested the reactivity of NHSF with a model peptide (Ac-AAAKAAR (SEQ ID NO:1), 7KR) with a single Lys as a reactive group, and compared its reactivity towards BS2G (bis(sulfosuccinimidyl) 2,2,4,4-glutarate-d4, FIG. 2A), a commercial NHS-based homo-bifunctional crosslinker of similar length. […] Owing to the low reactivity of sulfonyl-fluorides and the lack of reactive groups in 7KR, additional reaction was not observed with the Arg sidechain.
# Peptide and protein cross-linking.
# [3] = system: E. coli whole cell lysate; test: CXMS analysis of cross-linked E. coli whole cell lysate; conditions: 10 mg/mL lysate, 40 mM crosslinker, RT 2 h
# Experimental: To determine whether NHSF could be used in complex biological samples to generate novel cross-links for MS identification, we applied BS2G and NHSF on E. coli whole cell lysate.
# Preparation of E. coli cell lysate. DH10β bacterial cells were cultured overnight. After cells were harvested by centrifugation, cell pellets were washed twice with PBS. Cells were resuspended with lysis buffer (50 mM Hepes, pH 8.3, 150 mM NaCl, 1×EDTA-free Complete Protease Inhibitor Cocktail) and incubate with lysozyme (1 mg/mL), DNase I (0.5 mg/mL) and RNase A (0.1 mg/mL) at 4° C. for 30 min. Cell lysates were sonicated for 3 min with 30% energy and filtrated with Amicon-0.5 ml 10K unit for 3 times.
# Peptide and protein cross-linking. […] E. coli cell lysate: 20 uL lysate (10 mg/mL protein, 50 mM Hepes, pH 8.3, 150 mM NaCl) was incubate with 40 mM BS2G or 40 mM NHSF at RT for 2 h. BS2G cross-linking reaction was terminated at RT by adding 100 mM ammonium bicarbonate and incubating for 20 min. NHSF cross-linking reaction was terminated at RT by adding 100 mM DTT and incubating for 20 min.
# Protein digestion. All protein samples were precipitated by six volumes of acetone at −20° C. for 30 min. Precipitated proteins were dried in air and resuspended in 8 M urea, 100 mM Tris, pH 8.5. […]
# [4] = system: SSB-19(3×) or SSB-ATC(4×) complex; test: SSB protein-DNA oligo crosslinking (denaturing TBE-urea gel shift); assay type: biochemical; conditions: 19(3×) or ATC(4×) DNA, 1 mM crosslinker, UV 365 nm 15 min
# HEK293T cells = test: Toxicity on incubation with HEK293T cells; assay type: cell-based, mammalian; conditions: 0.6 mM HoQM incubated for different time duration (4 or 8 hr)
# [5] = molecular target: T2, 14-3-3 protein (WT homodimer) (Homo sapiens, UniProt P63104); test: Dimeric crosslinking of 14-3-3 WT in vitro (SDS-PAGE); assay type: biochemical
# T2 sequence (P63104 1-245): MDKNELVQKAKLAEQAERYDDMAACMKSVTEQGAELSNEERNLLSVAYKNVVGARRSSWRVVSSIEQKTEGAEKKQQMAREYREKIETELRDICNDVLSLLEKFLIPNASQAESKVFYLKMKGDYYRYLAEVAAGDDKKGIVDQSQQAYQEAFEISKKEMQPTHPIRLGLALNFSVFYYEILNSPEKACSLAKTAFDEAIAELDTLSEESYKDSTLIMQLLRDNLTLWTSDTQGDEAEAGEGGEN
# Source text: We initially designed and synthesized a heterobifunctional crosslinker NHQM containing an NHS ester and a photocaged ortho-quinone methide (o-QM) (FIG. 7A). Two fluorines were installed at the methyl group ortho to the phenolic hydroxyl group, which was photocaged by an o-nitrobenzyl group. When in proximity to proteins, the reactive NHS ester will react with exposed Lys residues, planting the photocaged o-QM next to residues on interaction partners. UV release of o-nitrobenzyl induces elimination of a fluoride ion to generate o-QM spontaneously, which will subsequently crosslink with nearby nucleophilic side chains (FIG. 7A). […] We further studied the crosslinking rate by varying the duration of UV treatment immediately after addition of NHQM.
# (§1) Following crosslinking, NHQM results in a short and rigid linkage, which requires close contact of target residue pairs for effective crosslinking. We therefore tested whether this feature of NHQM could be used to readily determine protein dimerization in vitro and in cell lysates. It has been reported that three mutations (^12LAE^14→^12QQR^14) of 14-3-3 disrupt the dimer interface to form a monomer, leading to a distinct function from WT 14-3-3, such as chaperone activity.^[17] [18] However, previously the 14-3-3(QQR) mutant was isolated from cells and then characterized as a monomer using size exclusion chromatography. This in vitro process is tedious, and the results may not represent what occur in the cellular environment. We first treated purified 14-3-3 WT and QQR mutant with various amounts of NHQM and illuminated with UV light of 365 nm (FIGS. 9A-9B). […] We then applied NHQM directly to cell lysates of E. coli cells expressing either 14-3-3 WT or its QQR mutant, without isolating the 14-3-3 proteins.
# NHQM mediated 14-3-3 crosslinking in vitro.
# (§2) Utilizing NHQM to differentiate 14-3-3 dimer versus monomer.
# HoQM mediated 14-3-3 crosslinking in vitro.
# WT 14-3-3 protein = molecular target: T3, WT 14-3-3 protein (Homo sapiens, UniProt P63104); test: Tandem MS (CXMS) of crosslinked 14-3-3; assay type: biochemical
# T3 sequence (P63104 1-245): T2 sequence (P63104 1-245)
# Experimental: Tryptic digestion of cross-linked proteins. Protein digestion was carried out by following a procedure described previously.^[28] Briefly, after crosslinking protein samples were quenched by adding 100 mM Tris-HCI, pH 7.4 for 15 min. […] Protein was collected by centrifugation for 10 min at 15,000 g. […] Digestion was terminated by adding formic acid at final concentration 5% (v/v). Digested peptides were desalted with C18 ZipTip, and eluted peptides were dried down with SpeedVac.
# Mass spectrometry. Digested peptides were dissolved in 200 mM NH4HCO3 after clean-up and then subject to tandem mass spectrometry on a Thermo Q-Exactive Orbitrap. Crosslinked peptides. Peptides were separated by nano-LC Ultimate 3000 high-performance liquid chromatography system using an Acclaim PepMap C18 column (Thermo Scientific). […] The Q-Exactive mass spectrometer was operated in data-dependent mode with one full MS scan at R=70,000 (m/z=200) followed by ten HCD MS/MS scans at R=17,500 (m/z=200) using a stepped normalized collision energy of 28, 30, 35 eV. The AGC targets for the MS1 and MS2 scans were 3×10^6 and 1×10^5, respectively, and the maximum injection time for MS1 was 250 ms, and for MS2 was 200 ms. Precursors of the +1, +6 or above, or unassigned charge states were rejected; exclusion of isotopes was enabled; dynamic exclusion was set to 30 s. The crosslinking mass spectra were analyzed with pLink 2.3.^[29]
# [6] = molecular target: glutathione transferase (GST) expressed in HEK 293T cells (Escherichia coli, UniProt P0A9D2); test: GST crosslinking in mammalian cells (Western blot); assay type: cell-based; conditions: 4 mM NHQM, UV 365 nm 15 min
# 14-3-3(QQR) mutant = molecular target: T4, 14-3-3(QQR) mutant (Homo sapiens, UniProt P63104, A13Q/E14R/L12Q); test: Crosslinking of monomeric 14-3-3(QQR) mutant in vitro (SDS-PAGE); assay type: biochemical; conditions: 0-0.4 mM NHQM, UV 365 nm 15 min
# T4 sequence (P63104 1-245 L12Q/A13Q/E14R): T2 sequence (P63104 1-245) with L12Q, A13Q, E14R
# Source text: as §1, §2
# [7] = molecular target: T5, 14-3-3 QQR mutant in E. coli cell lysate (Homo sapiens, UniProt P63104, A13Q/E14R/L12Q); test: Crosslinking of 14-3-3 QQR mutant in E. coli cell lysate (Western blot); assay type: biochemical
# T5 construct: expressed in transfected cells; host or cells: E. coli, cell lysate
# T5 sequence (P63104 1-245 L12Q/A13Q/E14R): T2 sequence (P63104 1-245) with L12Q, A13Q, E14R
# Source text: as §1
# [8] = molecular target: endogenous EGFR in MCF7 cells (Homo sapiens, UniProt P00533); test: Crosslinking of endogenous EGFR on mammalian cell surface (Western blot); assay type: cell-based; conditions: BS^3 as positive control
# Thioredoxin (Trx) = Thioredoxin (Trx) (Escherichia coli, UniProt P0AA25); conditions: 1 mM or 10 mM NHQM, UV 365 nm 15 min, E. coli cell lysate
# Experimental: We started by testing NHQM's ability to crosslink interacting proteins in E. coli cell lysates. […] We expressed His-tagged Trx in E. coli cells, and then applied NHQM to the cell lysate followed by UV activation.
# Plasmid pBAD-Trx was transformed into BL21(DE3) E. coli cells, and the Trx protein expression was carried out following procedures described above except that the cell culture volume was decreased to 20 mL. After protein expression, the cells were harvested and resuspended in 15 mL 50 mM sodium phosphate buffer containing 200 mM NaCI, pH 7.5. The cells were broken by sonification. 15 μL cell suspension were taken and added with 0, 1, or 10 mM NHQM and incubated at RT for 15 min, followed by UV illumination at wavelength 365 nm for another 15 min. The reaction was then treated by adding 100 mM Tris-HCI, pH 7.5 and incubated at RT for 15 min. The samples were then quickly treated with SDS loading dye containing 100 mM DTT, boiled at 95° C. for 5 min, and then analyzed with Western blot using anti-His antibody.
# [9] = system: SSB protein with viral M13mp18 DNA; test: SSB protein-M13mp18 DNA crosslinking (denaturing TBE-urea gel shift); assay type: biochemical; conditions: 1 mM NHQM, UV 365 nm 15 min
# Experimental: that are reported to interact with SSB^[24] [25] The SSB-DNA complex was treated with NHQM and UV activation, and analyzed by denaturing TBE-urea gel shift assay to detect covalent crosslinking between SSB and DNA. […] We further investigated protein-DNA crosslinking by incubating a natural single stranded circular viral DNA M13mp18 with the SSB protein.^[26] As shown in FIG. 21B (also FIGS. 22A-22B), the M13mp18 control DNA run as two isoforms in the denatured TBE-Urea gel due to its large size, a major form remained in the well and a minor form migrating in the gel.
# [10] = molecular target: T6, 14-3-3 expressed in HEK293T cells (Homo sapiens, UniProt P63104); test: 14-3-3 crosslinking in mammalian cells (Western blot); conditions: 4 mM NHQM, UV 365 nm 15 min
# T6 sequence (P63104 1-245): T2 sequence (P63104 1-245)
# Experimental: We subsequently tested NHQM's crosslinking ability in mammalian cells. We incubated NHQM with live mammalian cells expressing the dimeric glutathione transferase (GST)^[9] or 14-3-3. […] Therefore, we tested using NHQM to crosslink proteins on mammalian cell surfaces. […] In addition, we further explored whether NHQM could probe endogenous mammalian proteins at physiologically relevant conditions. With this aim, we cultured MCF7 cells and treated them with or without NHQM, with or without UV, using the amine-reactive crosslinker bissulfosuccinimidyl suberate (BS^3) as a positive control.
# Plasmid pCDNA3.1-14-3-3, pCDNA3.1-GST, or pCDNA3.1-EGFR (2 μg each) was transfected into one well of 6-well plate of HEK293T cells, respectively. After transfection, the cells were cultured at 37° C. for additional 24 hr. The cells were harvested and washed with PBS, pH 7.4 for one time, followed by resuspension in 50 μL PBS, pH 7.4. […] The samples were then quickly treated with 2×SDS loading dye containing 100 mM DTT, boiled at 95° C. for 5 mins, and analyzed by running Western blot using an anti-His antibody.
# Plasmid pCDNA3.1-14-3-3 (2 μg) was transfected into one well of 6-well plate of HEK293T cells. […] The samples were then quickly treated with 2×SDS loading dye containing 100 mM DTT, boiled at 95° C. for 5 min, and analyzed with Western blot using an anti-His antibody.
# [11] = molecular target: epidermal growth factor receptor (EGFR) (Homo sapiens, UniProt P00533); test: Crosslinking of overexpressed EGFR on HEK293T cells (Western blot); conditions: HEK293T overexpressing EGFR, 4 mM NHQM, UV 365 nm 15 min
# Experimental: We subsequently tested NHQM's crosslinking ability in mammalian cells. […] Therefore, we tested using NHQM to crosslink proteins on mammalian cell surfaces.
# Plasmid pCDNA3.1-14-3-3, pCDNA3.1-GST, or pCDNA3.1-EGFR (2 μg each) was transfected into one well of 6-well plate of HEK293T cells, respectively. After transfection, the cells were cultured at 37° C. for additional 24 hr. The cells were harvested and washed with PBS, pH 7.4 for one time, followed by resuspension in 50 μL PBS, pH 7.4. The cells were either added nothing or added with 4 mM NHQM and incubated at RT for 15 min. Then the cells were illuminated with or without UV at wavelength 365 nm for another 15 min. After that, the reaction was treated by adding 100 mM Tris-HCI, pH 7.5 and incubated at RT for 15 min. The samples were then quickly treated with 2×SDS loading dye containing 100 mM DTT, boiled at 95° C. for 5 mins, and analyzed by running Western blot using an anti-His antibody.
# [12] = molecular target: T7, 14-3-3 WT in E. coli cell lysate (Homo sapiens, UniProt P63104); test: Crosslinking of 14-3-3 WT in E. coli cell lysate (Western blot); assay type: biochemical
# T7 sequence (P63104 1-245): T2 sequence (P63104 1-245)
# Source text: as §1
# Bovine Serum Albumin (BSA), sequence (P02769 25-607): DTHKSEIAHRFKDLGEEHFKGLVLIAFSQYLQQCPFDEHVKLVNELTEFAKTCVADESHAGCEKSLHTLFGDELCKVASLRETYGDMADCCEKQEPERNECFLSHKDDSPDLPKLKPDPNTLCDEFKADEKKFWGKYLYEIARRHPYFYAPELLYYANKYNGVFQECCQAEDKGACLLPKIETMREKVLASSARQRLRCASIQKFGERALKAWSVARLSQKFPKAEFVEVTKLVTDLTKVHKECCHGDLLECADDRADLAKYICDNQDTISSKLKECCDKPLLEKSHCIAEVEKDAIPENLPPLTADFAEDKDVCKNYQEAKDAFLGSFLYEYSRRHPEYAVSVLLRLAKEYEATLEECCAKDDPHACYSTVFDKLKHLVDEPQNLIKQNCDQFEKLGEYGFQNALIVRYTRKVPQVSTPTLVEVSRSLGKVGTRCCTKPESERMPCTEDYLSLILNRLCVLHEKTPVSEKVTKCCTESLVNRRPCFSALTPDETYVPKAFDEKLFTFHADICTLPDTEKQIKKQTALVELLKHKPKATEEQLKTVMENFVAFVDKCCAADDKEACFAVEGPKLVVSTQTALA
# epidermal growth factor receptor (EGFR), sequence (P00533 25-1210): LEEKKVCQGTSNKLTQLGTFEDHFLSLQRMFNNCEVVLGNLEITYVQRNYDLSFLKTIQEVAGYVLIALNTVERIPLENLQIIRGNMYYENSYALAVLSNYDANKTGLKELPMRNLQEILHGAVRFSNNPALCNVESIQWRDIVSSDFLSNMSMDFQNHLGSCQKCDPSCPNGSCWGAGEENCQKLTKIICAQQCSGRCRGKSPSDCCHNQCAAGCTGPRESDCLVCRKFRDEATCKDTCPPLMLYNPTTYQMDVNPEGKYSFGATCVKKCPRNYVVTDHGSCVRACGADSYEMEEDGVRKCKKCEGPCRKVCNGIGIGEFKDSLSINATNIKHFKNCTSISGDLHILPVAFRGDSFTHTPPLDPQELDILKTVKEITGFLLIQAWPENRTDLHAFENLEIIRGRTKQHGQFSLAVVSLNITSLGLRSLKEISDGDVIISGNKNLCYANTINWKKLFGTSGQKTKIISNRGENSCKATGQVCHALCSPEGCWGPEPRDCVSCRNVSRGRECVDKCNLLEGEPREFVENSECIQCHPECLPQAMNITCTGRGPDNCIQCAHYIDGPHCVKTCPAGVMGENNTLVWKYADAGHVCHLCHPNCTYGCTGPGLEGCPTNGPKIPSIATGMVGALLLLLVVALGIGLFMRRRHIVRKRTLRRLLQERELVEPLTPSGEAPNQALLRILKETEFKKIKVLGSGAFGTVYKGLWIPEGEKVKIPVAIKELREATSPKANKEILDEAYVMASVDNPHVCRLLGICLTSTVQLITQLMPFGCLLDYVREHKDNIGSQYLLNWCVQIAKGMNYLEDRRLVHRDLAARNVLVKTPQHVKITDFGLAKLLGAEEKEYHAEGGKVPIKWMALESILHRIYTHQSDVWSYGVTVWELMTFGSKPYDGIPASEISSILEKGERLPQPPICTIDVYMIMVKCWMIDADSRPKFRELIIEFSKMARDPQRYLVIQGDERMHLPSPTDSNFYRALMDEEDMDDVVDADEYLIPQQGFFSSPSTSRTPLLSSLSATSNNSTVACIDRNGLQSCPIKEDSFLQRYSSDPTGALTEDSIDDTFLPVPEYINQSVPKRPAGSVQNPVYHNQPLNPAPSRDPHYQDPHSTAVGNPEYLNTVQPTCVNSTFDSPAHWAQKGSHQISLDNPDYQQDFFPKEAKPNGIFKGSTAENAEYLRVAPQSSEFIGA
# endogenous EGFR in MCF7 cells, sequence (P00533 25-1210): as above
# Thioredoxin (Trx), sequence (P0AA25 whole entry): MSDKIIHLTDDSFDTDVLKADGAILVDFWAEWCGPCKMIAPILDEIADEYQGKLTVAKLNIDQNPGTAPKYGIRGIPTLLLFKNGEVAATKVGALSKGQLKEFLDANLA
smiles,measurement,setting,value
"[2H]C([2H])(CC(=O)ON1C(=O)CC(S(=O)(=O)O)C1=O)C([2H])([2H])C(=O)ON1C(=O)CC(S(=O)(=O)O)C1=O (stereo not drawn) [BS2G, bis(sulfosuccinimidyl) 2,2,4,4-glutarate-d4]",Cross-linked peptides identified by MS,"[1]; 10 μM GST, 0.5 mM crosslinker, RT 1 h",15
same,Cross-links incompatible with the GST structure,"[1]; out of 15 cross-links, PDB 1N2A",6
same,Inter-peptide cross-links identified by MS,"[2]; 10 μM BSA, 1 mM crosslinker, RT 1 h",18
same,Cross-linked peptides exceeding the distance limit,"[2]; limit of 20 Å Cα-Cα, BSA structure PDB 3V03",four
same,Products detected after reaction with peptide 7KR,peptide 7KR (Ac-AAAKAAR),both a mono-linked peptide as well as the cross-linked dimer
same,Inter-linked peptides identified,[3],106
"O=C(CCCCCCC(=O)ON1C(=O)CC(S(=O)(=O)O)C1=O)ON1C(=O)CC(S(=O)(=O)O)C1=O (stereo not drawn) [BS^3, bissulfosuccinimidyl suberate, reference compound]",SSB-DNA crosslinking (upshifted band),[4],did not result in SSB-DNA crosslinking
O=C(c1ccc(OCc2ccccc2[N+](=O)[O-])c(C(F)F)c1)N1CCN(C(=O)c2ccc(OCc3ccccc3[N+](=O)[O-])c(C(F)F)c2)CC1 [HoQM],Toxicity to HEK293T cells,HEK293T cells,without apparent toxicity
O=C(ON1C(=O)CCC1=O)c1ccc(OCc2ccccc2[N+](=O)[O-])c(C(F)F)c1 [NHQM],Crosslinked dimer of 14-3-3 WT versus crosslinker amount,"[5]; 0-0.4 mM NHQM, UV 365 nm 15 min",increased with higher NHQM concentration
same,UV exposure at which crosslinking of 14-3-3 could be observed,"[5]; 1 mM NHQM, UV 365 nm, SDS-PAGE",1 min
same,Crosslinked dimer of 14-3-3,"[5]; 1 mM crosslinker, with or without UV 365 nm, SDS-PAGE",detected only with addition of NHQM crosslinker and UV illumination
same,SSB-DNA crosslinking (upshifted band),[4],upshifted band was only observed for the SSB-19(3×) or SSB-ATC(4×) complex treated with both NHQM and UV light
same,Pairs of crosslinked peptides identified,"WT 14-3-3 protein; crosslinked 14-3-3, tandem MS",Eight
same,Residues crosslinked with Lys,"WT 14-3-3 protein; crosslinked 14-3-3, tandem MS","Arg, Asn, Gln, Glu, Lys, or Ser"
same,Cα-Cα distance of the crosslink exceeding the limit,WT 14-3-3 protein; limit ~22 Å,23.7 Å
same,Efficiency of dimeric crosslinking of GST in live mammalian cells,[6],< 10%
same,Crosslinking of 14-3-3 QQR,14-3-3(QQR) mutant,remained a monomer even at NHQM concentration up to 0.4 mM
same,Dimeric crosslinking of 14-3-3 QQR mutant in cell lysate,[7],not the QQR mutant
same,Crosslinking efficiency of endogenous EGFR,[8],comparable to the commercial crosslinker BS^3
same,Crosslinking of endogenous proteins to Trx,Thioredoxin (Trx),many endogenous proteins were crosslinked to Trx
same,SSB-M13mp18 crosslinking (upshift of minor form),[9],only in the presence of both NHQM treatment and UV activation was the minor form of M13mp18 upshifted into the well
same,Efficiency of dimeric crosslinking of 14-3-3 in live mammalian cells,[10],< 10%
same,EGFR dimer on Western blot,[11],EGFR dimer was detected
same,Dimeric crosslinking of 14-3-3 WT in cell lysate,[12],crosslinked as dimer
